Target: T1, human liver FBPase (Homo sapiens, UniProt P09467)
T1 construct: made in house; host or cells: E. coli
T1 sequence (P09467 2-338 limits assumed): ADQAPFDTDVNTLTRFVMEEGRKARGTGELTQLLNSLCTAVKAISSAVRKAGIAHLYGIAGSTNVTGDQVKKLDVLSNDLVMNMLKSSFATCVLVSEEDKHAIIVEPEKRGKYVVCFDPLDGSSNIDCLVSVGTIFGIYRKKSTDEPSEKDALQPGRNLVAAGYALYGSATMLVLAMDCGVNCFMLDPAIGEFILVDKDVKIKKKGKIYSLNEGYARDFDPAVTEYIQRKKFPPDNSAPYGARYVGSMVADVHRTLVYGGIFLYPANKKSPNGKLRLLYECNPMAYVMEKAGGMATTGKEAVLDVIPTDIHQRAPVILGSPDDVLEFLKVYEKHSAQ
Assay: FBPase assay: inorganic phosphate release (malachite green)
Assay type: biochemical
Details: recombinant human liver FBPase, 50 μM fructose-1,6-bisphosphate, read-out at 620 nm
Procedure: The following tests were carried out for evaluating the inhibitory activity of the compounds of the present invention against human liver FBPase (Swissprot Data base reference P09467, entry F16P_HUMAN).
Human liver FBPase cDNA (NM_000507) was purchased from Origene Technologies, Inc, subcloned in a vector for expression in E. Coli., and sequenced. Recombinant human liver FBPase (hlFBPase) was purified according to the following protocol that uses heat denaturation similarly to that described by El-Maghrabi et. al. [El-Maghrabi, M. R. et al. “Isolation of a human liver fructose-1,6-bisphosphatase cDNA and expression of the protein in Escherichia coli.” J Biol Chem 268:9466-9472, 1993.]. Briefly, E. coli cells, transiently expressing very high levels of soluble and active human liver FBPase, were suspended in 20 mM Tris-HCl pH 7.5, 1 mM EDTA, 1 mM DTT and were lysed by French press. The soluble extract was heat denatured at 65° C. for 5 min, and insoluble, denatured proteins were removed by centrifugation. The extract was then applied to a BioRad Macro-Prep High Q column equilibrated with 20 mM Tris-HCl pH 7.5, 1 mM EDTA, 1 mM DTT and the flow-through (containing FBPase activity) was collected and applied to a BioRad Macro-Prep HS column equilibrated with 20 mM HEPES pH 7.2, 1 mM DTT. A gradient of increasing NaCl concentration was then applied to the HS column and fractions were collected. Fractions containing active FBPase were pooled and further purified by size exclusion chromatography on a Sephacryl S200 column equilibrated in 20 mM Tris-HCl pH 7.5, 150 mM NaCl, 1 mM EDTA, 1 mM DTT. Purity of the enzyme preparation was >90% as assessed by Mass spectrometry.
Recombinant human liver FBPase (hlFBPase) activity was assayed through measuring the inorganic phosphate release that results from the hydrolysis of Fructose-1,6-bisphosphate by the enzyme. As described by Baykov A. A. et al. in [Baykov A. A et al., “Malachite Green procedure for orthophosphate determination and its use in alkaline phosphatase-based enzyme immunoassays”. Anal. Biochem., 171:266-270, 1988], inorganic phosphate can be readily quantified by spectrophotometry at 620 nm after complexation with ammonium molybdate/malachite green reagent. Enzymatic reaction was carried out with modifications of the procedure described by Wright S. W. et al. [Wright S. W. et al., “Anilinoquinazoline inhibitors of Fructose-1,6-bisphosphatase bind to a novel allosteric site: synthesis, in vitro characterization, and X-ray crystallography”. J. Med. Chem. 45:3865-3877, 2002]. Specifically, the reaction was carried out in 96 well plates in a final volume of 100 μl in the presence or in the absence of allosteric inhibitors. Reaction was started adding 25 ng of hlFBPase to the reaction mixture containing 50 mM HEPES-KOH buffer pH 7.2, 2 mM MgCl2, 2 mM EDTA, 1 mM DTT, 50 μM fructose-1,6-bisphosphate and 1% DMSO. After 50 minutes incubation at room temperature, the phosphate released was allowed to form a colored complex for 10 min by adding 150 μl of ammonium molybdate/malachite green reagent containing 0.03% malachite green, 0.2% ammonium molybdate, 0.05% Triton X-100 and 0.7 M H2SO4 in water that was stirred for 30 min at room temperature and filtered through 0.2 μm filter. Under these conditions, the assay was linear with time and able to detect FBPase inhibition after spectrophotometric read-out at 620 nm.

COc1ccc2sc(S(=O)(=O)NC(=O)Nc3ncc(Br)s3)cc2c1 [Example 17, N-[(5-Bromo-1,3-thiazol-2-yl)carbamoyl]-5-methoxy-1-benzothiophene-2-sulfonamide] gave an IC50 of 167 nM.

In the case of Cc1noc(C)c1-c1ccc2sc(S(=O)(=O)NC(=O)Nc3ncc(Br)s3)cc2c1 [Example 16, N-[(5-bromo-1,3-thiazol-2-yl)carbamoyl]-5-(3,5-dimethylisoxazol-4-yl)-1-benzothiophene-2-sulfonamide], the IC50 is reported as 830 nM.

In the case of COCCc1sc(S(=O)(=O)NC(=O)Nc2nc3c(OC)cccc3s2)cc1C [Example 89, N-[(4-Methoxy-1,3-benzothiazol-2-yl)carbamoyl]-5-(2-methoxyethyl)-4-methylthiophene-2-sulfonamide], the IC50 is reported as 263 nM.

Compound O=C(Nc1ncc(Br)s1)NS(=O)(=O)c1cc2cccc(OCc3ccccc3)c2s1 [Example 37, 7-(Benzyloxy)-N-[(5-bromo-1,3-thiazol-2-yl)carbamoyl]-1-benzothiophene-2-sulfonamide] has an IC50 of 972 nM.

Work on Cc1cc(S(=O)(=O)NC(=O)Nc2nc3c(C)cccc3s2)sc1CCO [Example 94, 5-(2-Hydroxyethyl)-4-methyl-N-[(4-methyl-1,3-benzothiazol-2-yl)carbamoyl]thiophene-2-sulfonamide] yielded an IC50 of 64 nM.

Cc1noc(C)c1-c1cccc2cc(S(=O)(=O)NC(=O)Nc3ncc(Br)s3)sc12 [Example 21, N-[(5-Bromo-1,3-thiazol-2-yl)carbamoyl]-7-(3,5-dimethylisoxazol-4-yl)-1-benzothiophene-2-sulfonamide] gave an IC50 of 447 nM.

Work on Cn1cc(S(=O)(=O)NC(=O)Nc2ncc(Br)s2)c2cccc(Br)c21 [Example 34, 7-Bromo-N-[(5-bromo-1,3-thiazol-2-yl)carbamoyl]-1-methyl-1H-indole-3-sulfonamide] yielded an IC50 of 296 nM.

Work on CCc1nc(NC(=O)NS(=O)(=O)c2cc(C)c(CCOC(C)=O)s2)sc1SC [Example 83, 2-{5-[({[4-Ethyl-5-(methylthio)-1,3-thiazol-2-yl]carbamoyl}amino)sulfonyl]-3-methyl-2-thienyl}ethyl acetate] yielded an IC50 of 134 nM.

CC(=O)OCCOc1cccc2c(S(=O)(=O)NC(=O)Nc3ncc(Br)s3)cn(C)c12 [Example 48, 2-{[3-({[(5-Bromo-1,3-thiazol-2-yl)carbamoyl]amino}sulfonyl)-1-methyl-1H-indol-7-yl]oxy}ethyl acetate] showed an IC50 of 429 nM.

In the case of CCc1nc(NC(=O)NS(=O)(=O)c2csc(C)c2)sc1CC [Example 62, N-[(4,5-Diethyl-1,3-thiazol-2-yl)carbamoyl]-5-methylthiophene-3-sulfonamide], the IC50 is reported as 214 nM.

Compound COc1ccc2cc(S(=O)(=O)NC(=O)Nc3ncc(Br)s3)sc2c1 [Example 9, N-[(5-Bromo-1,3-thiazol-2-yl)carbamoyl]-6-methoxy-1-benzothiophene-2-sulfonamide] has an IC50 of 88 nM.

Compound CCOC(=O)COc1cccc2c(S(=O)(=O)NC(=O)Nc3ncc(Br)s3)cn(C)c12 [Example 50, Ethyl {[3-({[(5-bromo-1,3-thiazol-2-yl)carbamoyl]amino}sulfonyl)-1-methyl-1H-indol-7-yl]oxy}acetate] has an IC50 of 212 nM.

Compound COCCc1sc(S(=O)(=O)NC(=O)Nc2nc3cc(OC)ccc3s2)cc1C [Example 45, N-[(5-Methoxy-1,3-benzothiazol-2-yl)carbamoyl]-5-(2-methoxyethyl)-4-methylthiophene-2-sulfonamide] has an IC50 of 402 nM.

COC(=O)c1ccc2c(c1)c(S(=O)(=O)NC(=O)Nc1ncc(Br)s1)cn2C [Example 25, Methyl 3-({[(5-bromo-1,3-thiazol-2-yl)carbamoyl]amino}sulfonyl)-1-methyl-1H-indole-5-carboxylate] showed an IC50 of 731 nM.

COc1sc(NC(=O)NS(=O)(=O)c2cc(C)c(CCOC(C)=O)s2)nc1C [Example 74, 2-[5-({[(5-Methoxy-4-methyl-1,3-thiazol-2-yl)carbamoyl]amino}sulfonyl)-3-methyl-2-thienyl]ethyl acetate] was tested, and the IC50 was 454 nM.

CCc1nc(NC(=O)NS(=O)(=O)c2cc(C)c(CCO)s2)sc1CC [Example 69, N-[(4,5-Diethyl-1,3-thiazol-2-yl)carbamoyl]-5-(2-hydroxyethyl)-4-methylthiophene-2-sulfonamide] was tested, and the IC50 was 340 nM.

With COc1sc(NC(=O)NS(=O)(=O)c2csc(C)c2)nc1C [Example 95, N-[(5-Methoxy-4-methyl-1,3-thiazol-2-yl)carbamoyl]-5-methylthiophene-3-sulfonamide] the IC50 was 594 nM.

With Cn1c(S(=O)(=O)NC(=O)Nc2ncc(Br)s2)cc2ccccc21 [Example 8, N-[(5-Bromo-1,3-thiazol-2-yl)carbamoyl]-1-methyl-1H-indole-2-sulfonamide] the IC50 was 1100 nM.

COCCc1sc(S(=O)(=O)NC(=O)Nc2nc3c(C)cccc3s2)cc1C [Example 91, 5-(2-Methoxyethyl)-4-methyl-N-[(4-methyl-1,3-benzothiazol-2-yl)carbamoyl]thiophene-2-sulfonamide] was tested, and the IC50 was 375 nM.

Compound CCc1sc(NC(=O)NS(=O)(=O)c2cc(C)c(CCO)s2)nc1C(C)C [Example 79, N-[(5-Ethyl-4-isopropyl-1,3-thiazol-2-yl)carbamoyl]-5-(2-hydroxyethyl)-4-methylthiophene-2-sulfonamide] has an IC50 of 188 nM.

Cn1cc(S(=O)(=O)NC(=O)Nc2ncc(Br)s2)c2cc(OCc3ccccc3)ccc21 [Example 24, 5-(Benzyloxy)-N-[(5-bromo-1,3-thiazol-2-yl)carbamoyl]-1-methyl-1H-indole-3-sulfonamide] showed an IC50 of 683 nM.

With COc1cnc(NC(=O)NS(=O)(=O)c2cn(C)c3c(OCCO)cccc23)s1 [Example 47, 7-(2-Hydroxyethoxy)-N-[(5-methoxy-1,3-thiazol-2-yl)carbamoyl]-1-methyl-1H-indole-3-sulfonamide] the IC50 was 734 nM.

Work on CCc1nc(NC(=O)NS(=O)(=O)c2cc(C)c(CCOC)s2)sc1Br [Example 58, N-[(5-Bromo-4-ethyl-1,3-thiazol-2-yl)carbamoyl]-5-(2-methoxyethyl)-4-methylthiophene-2-sulfonamide] yielded an IC50 of 155 nM.

Compound CSc1sc(NC(=O)NS(=O)(=O)c2cc(C)c(CCO)s2)nc1C [Example 86, 5-(2-Hydroxyethyl)-4-methyl-N-{[4-methyl-5-(methylthio)-1,3-thiazol-2-yl]carbamoyl}thiophene-2-sulfonamide] has an IC50 of 71 nM.

Compound COc1sc(NC(=O)NS(=O)(=O)c2cn(C)c3c(OCC(N)=O)cccc23)nc1C [Example 53, 2-{[3-({[(5-Methoxy-4-methyl-1,3-thiazol-2-yl)carbamoyl]amino}sulfonyl)-1-methyl-1H-indol-7-yl]oxy}acetamide] has an IC50 of 764 nM.

Work on CCc1sc(NC(=O)NS(=O)(=O)c2cc(C)c(CCO)s2)nc1C [Example 70, N-[(5-Ethyl-4-methyl-1,3-thiazol-2-yl)carbamoyl]-5-(2-hydroxyethyl)-4-methylthiophene-2-sulfonamide] yielded an IC50 of 417 nM.

Cn1cc(S(=O)(=O)NC(=O)Nc2ncc(Br)s2)c2ccc(S(C)(=O)=O)cc21 [Example 30, N-[(5-Bromo-1,3-thiazol-2-yl)carbamoyl]-1-methyl-6-(methylsulfonyl)-1H-indole-3-sulfonamide] was tested, and the IC50 was 523 nM.

Compound Cn1cc(S(=O)(=O)NC(=O)Nc2ncc(Br)s2)c2ccc(C#N)cc21 [Example 29, N-[(5-Bromo-1,3-thiazol-2-yl)carbamoyl]-6-cyano-1-methyl-1H-indole-3-sulfonamide] has an IC50 of 740 nM.

— patent US7973051B2 (Hoffman-La Roche Inc., priority 2007, dated 2011)
